According to PubChem BioAssay AID624447 (The Scripps Research Institute Molecular Screening Center, 2012):
The source made the active and inactive calls.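 The calls were made as follows: active = PP2A blockers whose half-maximal inhibitory concentration IC50 falls below 50 µM; inactive = IC50 at or above 50 µM.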

Biological target: Serine/threonine-protein phosphatase 2A catalytic subunit alpha isoform (Bos taurus) (UniProt P67774)
Test: PP2A inhibitor potency, phosphohistone substrate, late-stage follow-up, selectivity assay for PP5 inhibitor project, biochemical, bovine brain PP2A, 32P-phosphohistone, dose response, round 5 (AID 624447)
Details: purified bovine PP2A, 32P-phosphohistone dephosphorylation, scintillation

Serine/threonine-protein phosphatase 2A catalytic subunit alpha isoform (Bos taurus), sequence (P67774 whole entry, looked up, canonical isoform): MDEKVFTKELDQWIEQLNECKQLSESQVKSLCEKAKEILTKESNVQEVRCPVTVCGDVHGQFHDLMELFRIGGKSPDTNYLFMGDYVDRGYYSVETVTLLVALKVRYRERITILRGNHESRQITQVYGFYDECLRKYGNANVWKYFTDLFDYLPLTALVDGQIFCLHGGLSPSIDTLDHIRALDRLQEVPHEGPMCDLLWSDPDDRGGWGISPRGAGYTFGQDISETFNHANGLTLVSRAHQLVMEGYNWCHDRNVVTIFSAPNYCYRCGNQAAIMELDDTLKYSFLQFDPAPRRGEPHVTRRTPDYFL

IC50: inactive
Structure (SMILES): CC(C)Oc1ccccc1-c1n[nH]nc1C(=O)O
